Experimental data reported in PubChem BioAssay AID1918945 (Molecular Pharmacology Branch, DTP, NCI, 2023).

Tested on: 883617-216-R-J1-PDC complex spheroid viability
Assay: Anticancer human tumor 883617-216-R-J1-PDC patient-derived bladder carcinoma cell line growth inhibition
Conditions: for IC50: curve of first compound; for viability, T/C: stronger effect = lower value
Outline: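 Multicellular complex spheroids of tumor cells with human endothelial cells (HUVEC) and mesenchymal stem cells; the LSD1 inhibitor iadademstat was combined with standard-of-care or investigational agents. Top concentration at or near clinical Cmax, half-log dilutions; final DMSO ≤0.25%.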
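Also: exposure lasted seven days after three days of spheroid growth.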
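For viability, T/C in this document: 100% = DMSO vehicle control luminescence.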

Nc1ccccc1NC(=O)c1ccc(CNC(=O)OCc2cccnc2)cc1 + NC1CCC(NC2CC2c2ccccc2)CC1 gave an IC50 (second compound 0.1 µM) of 206 nM, an IC50 (second compound 0.316 µM) of 205 nM and an IC50 (second compound 1 µM) of 233 nM. For the same molecule, the IC50 (second compound 3.16 µM) was 216 nM, the IC50 (second compound 10 µM) was 235 nM and the viability, T/C (second compound 0.1 µM, first compound 0.00949 µM) was 115%. It also gave a viability, T/C (second compound 0.1 µM, first compound 0.03 µM) of 89.3%, a viability, T/C (second compound 0.1 µM, first compound 0.0949 µM) of 73.5% and a viability, T/C (second compound 0.1 µM, first compound 0.3 µM) of 39.5%. It also gave a viability, T/C (second compound 0.1 µM, first compound 0.949 µM) of 15.8%, a viability, T/C (second compound 0.1 µM, first compound 3 µM) of 0.37% and a viability, T/C (second compound 0.316 µM, first compound 0.00949 µM) of 112%. For the same molecule, the viability, T/C (second compound 0.316 µM, first compound 0.03 µM) was 96.2%, the viability, T/C (second compound 0.316 µM, first compound 0.0949 µM) was 74.1% and the viability, T/C (second compound 0.316 µM, first compound 0.3 µM) was 36.5%. The viability, T/C (second compound 0.316 µM, first compound 0.949 µM) was 16.6%, the viability, T/C (second compound 0.316 µM, first compound 3 µM) was 0.73% and the viability, T/C (second compound 1 µM, first compound 0.00949 µM) was 104%. The viability, T/C (second compound 1 µM, first compound 0.03 µM) was 90.2%, the viability, T/C (second compound 1 µM, first compound 0.0949 µM) was 76.5% and the viability, T/C (second compound 1 µM, first compound 0.3 µM) was 41.4%. For the same molecule, the viability, T/C (second compound 1 µM, first compound 0.949 µM) was 17.5%, the viability, T/C (second compound 1 µM, first compound 3 µM) was 1.37% and the viability, T/C (second compound 3.16 µM, first compound 0.00949 µM) was 102%. The viability, T/C (second compound 3.16 µM, first compound 0.03 µM) was 103%, the viability, T/C (second compound 3.16 µM, first compound 0.0949 µM) was 66.6% and the viability, T/C (second compound 3.16 µM, first compound 0.3 µM) was 40.4%. The viability, T/C (second compound 3.16 µM, first compound 0.949 µM) was 21.5%, the viability, T/C (second compound 3.16 µM, first compound 3 µM) was 1.18% and the viability, T/C (second compound 10 µM, first compound 0.00949 µM) was 106%. The viability, T/C (second compound 10 µM, first compound 0.03 µM) was 88%, the viability, T/C (second compound 10 µM, first compound 0.0949 µM) was 66.5% and the viability, T/C (second compound 10 µM, first compound 0.3 µM) was 45.9%. It also gave a viability, T/C (second compound 10 µM, first compound 0.949 µM) of 23.6% and a viability, T/C (second compound 10 µM, first compound 3 µM) of 0.93%.
